In US20090304720A1, “Active Agent-Loaded Nanoparticles Based On Hydrophilic Proteins” (LTS Lohmann Therapie-Systeme AG, priority 2006, published 2009):

Test system: mice
Test: tail-flick test, analgesia (nociceptive response) after intravenous injection
Type: in vivo, mouse
Details: 7.0 mg/kg loperamide, cut-off ten seconds = 100% MPE
Protocol: The preparations were applied intravenously to mice, at a dosage of 7.0 mg/kg loperamide. Based on an average body weight of a mouse of 20 g, the animals received an application amount of 200 μl of the above-mentioned preparation.
With the aid of this system, the analgesic effects shown in FIG. 1 were achieved after intravenous injection using the above-mentioned active agent loperamide. Analgesia (Nociceptive Response) was detected by the tail-flick test, wherein a hot beam of light is projected onto the tail of the mouse and the time that passes until the mouse flicks away its tail is measured. After ten seconds (=100% MPE) the experiment is discontinued so as not to cause injury to the mouse. Negative MPE values occur in those cases where following administration of the preparation, the mouse flicks away its tail earlier than before the treatment.
As a comparison, a loperamide solution 0.7 mg/ml in 2.6%-vol. ethanol was used.

## CN(C)C(=O)C(CCN1CCC(O)(c2ccc(Cl)cc2)CC1)(c1ccccc1)c1ccccc1 [loperamide]
  analgesic effect (maximal possible effect, MPE): no analgesic effect
